According to ChEMBL document CHEMBL1151418, “Breviane spiroditerpenoids from an extreme-tolerant Penicillium sp. isolated from a deep sea sediment sample” (J Nat Prod, 2009):
Structures can show the parent of a compound that is named as a salt.

Assays:
[1] = system: HeLa; experiment: Growth inhibition of human HeLa cells at 10 ug/mL after 4 hrs by MTT assay; assay type: functional; conditions: read-out: GI
[2] = Cytotoxicity against human C8166 cells after 4 days by MTT assay; assay type: cell-based
[3] = system: HIV-1 M:B_Lai; experiment: Antiviral activity against HIV-1 M:B_Lai replication in human C8166 cells assessed as inhibition of p24 antigen expression level after 4 days by ELISA; assay type: functional, organism-based; conditions: Human immunodeficiency virus 1, LAI, C8166, 96 h

EC50 [3] [µM] | Compound | inhibition of growth at 10 µg/mL [1] [%] | CC50 at 96 h [2] [µM]
14.7 | CC1=CC(=O)C=C[C@]2(C)[C@H]3[C@@H](O)C=C(C)[C@@]4(Cc5c(c(C)c(C)oc5=O)O4)[C@]3(C)CC[C@@H]12 [BREVIONE F] | 25.2 | > 100
> 50 | CC1=CC(=O)C=C[C@]2(C)[C@H]3[C@H](O)C=C(C)[C@@]4(Cc5c(c(C)c(C)oc5=O)O4)[C@]3(C)CC[C@@H]12 [BREVIONE G] | 44.9 | –
> 50 | CC1=CC(=O)C[C@@H]2O[C@@H]3C=C(C)[C@@]45Oc6c(C)c(C)oc(=O)c6[C@@H]4O[C@H](O)[C@]54CC[C@@H]1[C@@]2(C)[C@@H]34 [BREVIONE H] | 25.3 | –
0.00871 | CC(C)(C)NC(=O)[C@@H]1CN(Cc2cccnc2)CCN1C[C@@H](O)C[C@@H](Cc1ccccc1)C(=O)N[C@H]1c2ccccc2C[C@H]1O [INDINAVIR SULFATE] | – | –
